Experiment in all cases: […]-pyruvate uptake, filter assay, complemented triple mutant
Common to all, as to format: cell-based
Holding throughout (details): 0.5 mM 14C-pyruvate, TSBG, 37 °C; labelled compound

The target in experiment [1] is T1, LldP (Staphylococcus aureus, UniProt A0A0H2XGA6).
T1 construct: gene SAUSA300_2313; full-length 532 aa, untagged; expressed from Pcad::lldP (pBK123) in S. aureus JE2 delta lrgAB/lctP/lldP

Experiment [2] concerns the target T2, LrgAB (Staphylococcus aureus, UniProt Q2FK07+Q2FK08).
T2 construct: gene lrgA; lrgAB operon, untagged; expressed from Pcad::lrgAB (pBK123) in S. aureus JE2 transporter mutants

The target of experiment [3] is T3, LctP (Staphylococcus aureus, UniProt A0A0H2XEN8).
T3 construct: full-length 530 aa, untagged; expressed from Pcad::lctP (pBK123) in S. aureus JE2 delta lrgAB/lctP/lldP
T3 sequence (A0A0H2XEN8 entry or part of it): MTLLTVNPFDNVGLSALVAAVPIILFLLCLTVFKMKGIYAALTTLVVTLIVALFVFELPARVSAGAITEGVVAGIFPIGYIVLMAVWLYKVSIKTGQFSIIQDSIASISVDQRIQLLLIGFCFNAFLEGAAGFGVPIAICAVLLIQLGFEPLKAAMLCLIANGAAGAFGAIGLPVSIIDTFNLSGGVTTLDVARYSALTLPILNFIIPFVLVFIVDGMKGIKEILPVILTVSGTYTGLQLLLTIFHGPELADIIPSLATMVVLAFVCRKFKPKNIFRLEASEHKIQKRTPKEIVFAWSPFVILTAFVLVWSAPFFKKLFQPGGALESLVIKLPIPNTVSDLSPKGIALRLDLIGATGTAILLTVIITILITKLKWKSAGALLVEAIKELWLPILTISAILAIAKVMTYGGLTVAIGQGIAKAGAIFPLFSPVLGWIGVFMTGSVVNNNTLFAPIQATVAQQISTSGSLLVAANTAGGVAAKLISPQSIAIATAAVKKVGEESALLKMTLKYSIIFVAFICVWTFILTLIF

T1 sequence (A0A0H2XGA6 entry or part of it): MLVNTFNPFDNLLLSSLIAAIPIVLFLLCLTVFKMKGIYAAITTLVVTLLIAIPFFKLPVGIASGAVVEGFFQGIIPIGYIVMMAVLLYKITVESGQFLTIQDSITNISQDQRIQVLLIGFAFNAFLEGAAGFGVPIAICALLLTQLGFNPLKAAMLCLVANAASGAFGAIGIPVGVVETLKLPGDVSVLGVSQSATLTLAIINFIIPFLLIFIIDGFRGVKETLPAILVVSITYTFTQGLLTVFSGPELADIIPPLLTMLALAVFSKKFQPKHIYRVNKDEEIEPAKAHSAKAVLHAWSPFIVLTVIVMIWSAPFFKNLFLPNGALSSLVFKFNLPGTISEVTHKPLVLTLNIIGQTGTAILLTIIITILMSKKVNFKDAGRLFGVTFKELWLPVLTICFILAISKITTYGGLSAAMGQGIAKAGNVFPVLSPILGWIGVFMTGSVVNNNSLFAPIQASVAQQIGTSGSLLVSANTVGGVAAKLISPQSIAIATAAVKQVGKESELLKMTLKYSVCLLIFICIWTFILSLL
T2 sequence (Q2FK07 whole entry): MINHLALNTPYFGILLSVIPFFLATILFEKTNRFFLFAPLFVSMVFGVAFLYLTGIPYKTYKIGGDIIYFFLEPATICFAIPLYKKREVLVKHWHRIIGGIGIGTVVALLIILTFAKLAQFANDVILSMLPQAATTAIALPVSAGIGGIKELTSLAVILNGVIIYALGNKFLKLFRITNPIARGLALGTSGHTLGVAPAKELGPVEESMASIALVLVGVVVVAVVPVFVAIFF
T2 sequence (Q2FK08 whole entry): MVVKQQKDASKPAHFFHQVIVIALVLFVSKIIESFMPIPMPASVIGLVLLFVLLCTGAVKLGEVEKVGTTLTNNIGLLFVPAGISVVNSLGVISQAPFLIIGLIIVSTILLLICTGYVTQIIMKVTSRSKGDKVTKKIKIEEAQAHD

As for `CC(=O)C(=O)O` [pyruvate], the “14C-pyruvate uptake, filter assay, complemented triple mutant” value was “lctP playing the most significant role under these conditions, followed by lldP, and then lrgAB” in experiment [1]; “lctP playing the most significant role under these conditions, followed by lldP, and then lrgAB” in experiment [2]; “all three of the putative pyruvate transporters contribute to pyruvate import, with lctP playing” in experiment [3].

The values are drawn from article PMC12632267, “Staphylococcus aureus encodes four differentially regulated pyruvate transporters” (Journal of Bacteriology, 2025).
